Measurements from US7157083B2, “Compositions and methods for treating retroviral infections” (priority 1998, dated 2007).

Tested on: clinical isolate ROJO (low passage HIV-1) in human PBMCs
Test: Study 1 PBMC assay: reverse transcriptase activity after ROJO infection (Treatments A, B, C)
Type: cell-based
Protocol: Percent virus control (% VC) in the following tables is the mean RT activity (cpm) as a percentage of a virus control. Percent cell control (% CC) is the mean XTT absorbance as a percentage of a cell control.
Peripheral blood monocular cells (PBMCs) are obtained from normal hepatitis and HIV-1 negative donors by ficoll hypaque gradient separation. Briefly, anti-coagulated blood is diluted 1:1 with Dulbecco's phosphate buffered saline without Ca^++ and Mg^++ (PBS) and layered over 14 mL of Lymphocyte separation media in a 50 ml centrifuge tube. Tubes are then centrifuged for 30 minutes at 600× g. Banded PBLs are gently aspirated from the resulting interface and subsequently washed 2× with PBS by low speed centrifugation. The mononuclear cells are counted, viability determined by Trypan Blue dye exclusion and resuspended in RPM1640 medium supplemented with 15% FBS (heat inactivated), 2 mM L-glutamine, 100 U/mL penicillin, 100 μg/mL streptomycin, and 10 μg/mL gentamycin with 2 μg/mL phytohemagluttin (PHA) at 1×10^6 cells/mL. The cells are cultured for 48 to 72 h at 37° C., 5% CO2 Following incubation, cells are collected by centrifugation, washed and resuspended in RPMI 1640 supplemented with 15% FBS (heat inactivated), 2 Mm L-glutamine, 100 U/mL penicillin, 100 μg/mL streptomycin, and 10 μg/mL gentamycin with 20 U/mL recombinant IL-2 (R & D Systems, Minneapolis, Minn.). IL-2 is included in the culture medium to maintain the cell division initiated by the PHA mitogenic stimulation. The cultures are then maintained until use by ½ culture volume change with fresh IL-2 containing medium every 3 days.
Human peripheral blood mononuclear cells from a minimum of 2 donors, that have been blasted with PHA and IL-2, are counted, viability determined by Trypan Blue dye exclusion and mixed in equal ratios. Pooled donors are used to minimize the variability observed between individual donors which results from quantitative and qualitative differences in HIV infection and overall response to the PHA and IL-2 of primary lymphocyte populations. The cells are resuspended at 1×10^6 cells/mL in RPMI 1640 without phenol red supplemented with 15% Fetal Bovine Serum (heat inactivated), 2 mM L-glutamine, 100 U/mL penicillin, 100 μg/mL streptomycin, 10 μg/mL gentamycin and IL-2 (20 U/mL, R&D Systems, Minneapolis, Minn.). Fifty microliters of cells are then distributed to the inner 60 wells of a 96 well round bottom Microtiter culture plate in a standard format developed by the Infectious Disease Research department of Southern Research Institute. Each plate contains cell control wells (cells only), virus control wells (cell plus virus), and experimental wells (drug plus cells plus virus).
Using an in-house computer program, IC50 (50% inhibition of virus replication), TC50 (50% reduction in cell viability) and a therapeutic index (TI, […]) were determined. AZT was used as a relevant positive control compound for the individual assays.
This study compares the ability of hyaluronidase to AZT to lower viral replication as measured by reverse transcriptase levels. RT was measured on days 7, 14, and 21. Three different treatment regimens were used in the comparative study (Treatments A, B and C).
Treatment A. Normal mixed PHA blasted human PBMCs (5×10e4/well) were pretreated with drug every 48 hours for 3 doses. On day 6 of pretreatment, cells were infected with clinical isolate ROJO. 48 hours post infection, treatment with drugs continued for an additional 3 treatments. Samples for assay were collected on D7 (day 7), 14, 21, post infection, frozen and later analyzed for reverse transcriptase.
Treatment B. Normal mixed PHA blasted human PBMCs (as above) were plated in 96 wells and allowed to incubate for 48 hours (cells were set at same time as treatment A from same pool). Drug pretreatment started on day 2 and was repeated on day 4. On day 6, cell were infected as in treatment A, with concurrent addition of drug for a total of 3 treatments. […]

Cc1cn([C@H]2C[C@H](N=[N+]=[N-])[C@@H](CO)O2)c(=O)[nH]c1=O [AZT, reference compound]
RT activity % VC (Treatment A, 0.00017 μM, Day 7): 47.3%
RT activity % VC (Treatment A, 0.00017 μM, Day 14): 115.4%
RT activity % VC (Treatment A, 0.00017 μM, Day 21): 164.5%
RT activity % VC (Treatment A, 0.00054 μM, Day 7): 19.3%
RT activity % VC (Treatment A, 0.00054 μM, Day 14): 99.8%
RT activity % VC (Treatment A, 0.00054 μM, Day 21): 141.5%
RT activity % VC (Treatment A, 0.00168 μM, Day 7): 25.1%
RT activity % VC (Treatment A, 0.00168 μM, Day 14): 74.2%
RT activity % VC (Treatment A, 0.00168 μM, Day 21): 135.6%
RT activity % VC (Treatment A, 0.00524 μM, Day 7): 10.2%
RT activity % VC (Treatment A, 0.00524 μM, Day 14): 78.3%
RT activity % VC (Treatment A, 0.00524 μM, Day 21): 155.1%
RT activity % VC (Treatment A, 0.01638 μM, Day 7): 11.6%
RT activity % VC (Treatment A, 0.01638 μM, Day 14): 57.9%
RT activity % VC (Treatment A, 0.01638 μM, Day 21): 129.5%
RT activity % VC (Treatment A, 0.0512 μM, Day 7): 3.0%
RT activity % VC (Treatment A, 0.0512 μM, Day 14): 40.7%
RT activity % VC (Treatment A, 0.0512 μM, Day 21): 134.8%
RT activity % VC (Treatment A, 0.16 μM, Day 7): 2.7%
RT activity % VC (Treatment A, 0.16 μM, Day 14): 40.3%
RT activity % VC (Treatment A, 0.16 μM, Day 21): 126.3%
RT activity % VC (Treatment A, 0.5 μM, Day 7): 2.3%
RT activity % VC (Treatment A, 0.5 μM, Day 14): 21.4%
RT activity % VC (Treatment A, 0.5 μM, Day 21): 78.3%
RT activity % VC (Treatment A, 5.5E-05 μM, Day 7): 77.0%
RT activity % VC (Treatment A, 5.5E-05 μM, Day 14): 100.4%
RT activity % VC (Treatment A, 5.5E-05 μM, Day 21): 159.7%
RT activity % VC (Treatment B, 0.00017 μM, Day 7): 43.6%
RT activity % VC (Treatment B, 0.00017 μM, Day 14): 80.8%
RT activity % VC (Treatment B, 0.00017 μM, Day 21): 129.8%
RT activity % VC (Treatment B, 0.00054 μM, Day 7): 34.2%
RT activity % VC (Treatment B, 0.00054 μM, Day 14): 70.1%
RT activity % VC (Treatment B, 0.00054 μM, Day 21): 111.8%
RT activity % VC (Treatment B, 0.00168 μM, Day 7): 10.7%
RT activity % VC (Treatment B, 0.00168 μM, Day 14): 57.5%
RT activity % VC (Treatment B, 0.00168 μM, Day 21): 153.5%
RT activity % VC (Treatment B, 0.00524 μM, Day 7): 9.3%
RT activity % VC (Treatment B, 0.00524 μM, Day 14): 51.0%
RT activity % VC (Treatment B, 0.00524 μM, Day 21): 109.0%
RT activity % VC (Treatment B, 0.01638 μM, Day 7): 9.6%
RT activity % VC (Treatment B, 0.01638 μM, Day 14): 58.0%
RT activity % VC (Treatment B, 0.01638 μM, Day 21): 133.9%
RT activity % VC (Treatment B, 0.0512 μM, Day 7): 5.4%
RT activity % VC (Treatment B, 0.0512 μM, Day 14): 28.5%
RT activity % VC (Treatment B, 0.0512 μM, Day 21): 158.0%
RT activity % VC (Treatment B, 0.16 μM, Day 7): 3.9%
RT activity % VC (Treatment B, 0.16 μM, Day 14): 25.7%
RT activity % VC (Treatment B, 0.16 μM, Day 21): 93.8%
RT activity % VC (Treatment B, 0.5 μM, Day 7): 5.4%
RT activity % VC (Treatment B, 0.5 μM, Day 14): 9.5%
RT activity % VC (Treatment B, 0.5 μM, Day 21): 87.5%
RT activity % VC (Treatment B, 5.5E-05 μM, Day 7): 90.9%
RT activity % VC (Treatment B, 5.5E-05 μM, Day 14): 97.0%
RT activity % VC (Treatment B, 5.5E-05 μM, Day 21): 163.3%
RT activity % VC (Treatment C, 0.00017 μM, Day 7): 67.5%
RT activity % VC (Treatment C, 0.00017 μM, Day 14): 92.9%
RT activity % VC (Treatment C, 0.00017 μM, Day 21): 110.1%
RT activity % VC (Treatment C, 0.00054 μM, Day 7): 73.6%
RT activity % VC (Treatment C, 0.00054 μM, Day 14): 92.3%
RT activity % VC (Treatment C, 0.00054 μM, Day 21): 106.2%
RT activity % VC (Treatment C, 0.00168 μM, Day 7): 45.4%
RT activity % VC (Treatment C, 0.00168 μM, Day 14): 125.4%
RT activity % VC (Treatment C, 0.00168 μM, Day 21): 119.1%
RT activity % VC (Treatment C, 0.00524 μM, Day 7): 28.4%
RT activity % VC (Treatment C, 0.00524 μM, Day 14): 74.6%
RT activity % VC (Treatment C, 0.00524 μM, Day 21): 104.7%
RT activity % VC (Treatment C, 0.01638 μM, Day 7): 22.1%
RT activity % VC (Treatment C, 0.01638 μM, Day 14): 62.9%
RT activity % VC (Treatment C, 0.01638 μM, Day 21): 119.2%
RT activity % VC (Treatment C, 0.0512 μM, Day 7): 17.0%
RT activity % VC (Treatment C, 0.0512 μM, Day 14): 70.5%
RT activity % VC (Treatment C, 0.0512 μM, Day 21): 89.2%
RT activity % VC (Treatment C, 0.16 μM, Day 7): 10.3%
RT activity % VC (Treatment C, 0.16 μM, Day 14): 38.1%
RT activity % VC (Treatment C, 0.16 μM, Day 21): 72.0%
RT activity % VC (Treatment C, 0.5 μM, Day 7): 8.9%
RT activity % VC (Treatment C, 0.5 μM, Day 14): 26.8%
RT activity % VC (Treatment C, 0.5 μM, Day 21): 90.1%
RT activity % VC (Treatment C, 5.5E-05 μM, Day 7): 88.6%
RT activity % VC (Treatment C, 5.5E-05 μM, Day 14): 109.2%
RT activity % VC (Treatment C, 5.5E-05 μM, Day 21): 198.4%
